Source: patent US9487555B2, “Prodrug of an ice inhibitor” (VERTEX PHARMACEUTICALS INCORPORATED, priority 2000, dated 2016)

Assay: Oral pharmacokinetic studies in rats (quantitation of ICE inhibitor in rat plasma by HPLC/MS/MS)
Assay type: in vivo, Male Sprague-Dawley rats
Conditions: for AUC: male Sprague-Dawley rats, oral 50 mg/kg in 100% propylene glycol, plasma, noncompartmental; for Bioavailability (in words): amount of ICE inhibitor in rat plasma after oral administration, comparison in words
Method: Applicants studied a number of prodrug ICE inhibitors, including examples listed in the aforementioned WO 99/47545. Bioavailability was determined by quantitating the amount of ICE inhibitor in rat plasma after oral administration, as described below.
Male Sprague-Dawley rats (Harlan, Indianapolis, Ind., 300-350 g) were anesthetized by an intramuscular injection of ketamine/rompun mixture. A PE-50 cannula was inserted in the right carotid artery for arterial blood sampling. The rats were allowed to recover from surgery overnight (16 hours) prior to being used in the study. Test compounds were administered orally at 50 mg/kg 100% propylene glycol (PG) at a dose volume of 10 mL/kg. Blood samples (˜0.30 mL) were removed at 0.25, 0.50, 1.0, 1.5, 2, 3, 4, 6, and 8 hours post-dose, plasma separated by centrifugation and stored at −80° C. pending analysis. Quantification of the plasma samples was conducted using a gradient HPLC/MS/MS similar to the one detailed below: […]
HPLC/MS/MS Method for the Quantitation of ICE Inhibitors in Rat Plasma
1. 100 μl of plasma are aliquotted into Ependorf centrifuge vials.
2. An equal volume of acetonitrile is added to the plasma to precipitate plasma proteins.
3. Samples are vortexed for 2 minutes, and centrifuged at 14,000 rpms for 3 minutes.
4. 100 μl of the supernatant is loaded into 12 mm HPLC liquid sampler vials.
5. A 20 μl addition of […] standard is added to the 100 μl aliquot to monitor variation in instrumental response.
6. 10 μl of sample is injected for analysis via the mass spectrometer.
HPLC Instrumental Parameters
• HPLC: Hewlett Packard HP1100 Binary Solvent Delivery System. HPLC Gradient Conditions • A=H2O 0.2% Formic Acid • B=Acetonitrile 0.2% Formic Acid Mobile Phase
• HPLC Analytical Column: Keystone Phenyl-1 Hypersil 2.0×100 mm, 5μ 120 Å pore pore size, P/N# 105-36-2. • Injection Volume: 10 μl • Flow Rate: 0.20 mL/min. Mass Spectrometry Instrumental Parameters • Instrument: Micromass Quattro Ultima, Tandem Mass Spectrometer • Ionization Technique: Orthogonal spray (ESI) • Polarity: Positive • Dwell Time: 300 msec • Pause Time: 5 msec • Scan time: 0.9 sec • Scan Mode: MRM (Multiple Reaction Monitoring) • Ions/Transitions: For compound I-A m/z509.1-243.1 • For compound II m/z481.1-215.1 Pharmacokinetic Parameters
Pharmacokinetic analysis of these plasma concentration data was conducted using noncompartmental methods. The area under the curve (AUC(0-t)) was estimated from time zero to the last measured time point using the linear trapezoidal rule. The rate of elimination (ke) was estimated by log-linear regression from the terminal phase of the plasma concentration-time curves. Area under the tail of the curve was estimated as the ratio of the last measured concentration to ke. The area under the curve from time zero to infinity (AUC(0-∞)) was obtained by addition of the area under the tail to AUC(0-t). Elimination half-life was estimated as 0.693/ke. The observed values for the peak plasma concentration (Cmax) were recorded.

AUC | Bioavailability (in words) | Compound
2.18 μgXh/mL | – | CCO[C@@H]1OC(=O)C[C@@H]1NC(=O)[C@@H]1CCCN1C(=O)[C@H](C)NC(=O)c1ccc(N)c(Cl)c1 [Compound A, reference compound]
1.35 μgXh/mL | – | CCOC1OC(=O)C[C@@H]1NC(=O)[C@@H]1CCCN1C(=O)[C@@H](NC(=O)c1nccc2ccccc12)C(C)(C)C (some centres unmarked) [Compound B, reference compound]
11.7 μgXh/mL | unexpectedly improved bioavailability | CCO[C@@H]1OC(=O)C[C@@H]1NC(=O)[C@@H]1CCCN1C(=O)[C@@H](NC(=O)c1ccc(N)c(Cl)c1)C(C)(C)C [Compound I]
– | poor bioavailability | CC(C)(C)C(NC(=O)c1ccc(N)c(Cl)c1)C(=O)N1CCCC1C(=O)NC(C=O)CC(=O)O (centres unmarked) [II]
